From US20040022842A1, “Liposome preparations containing oxaliplatin” (Mebiopharm Co., Ltd., priority 2002, published 2004)

Tested on: Colon 26 cells
Experiment: Cytotoxicity of oxaliplatin (L-OHP) liposomes against tumor cells, WST-1 assay (Example 7), Colon 26
Assay type: cell-based
Details: Colon 26 and AsPC-1 cells; comparison of L-OHP solution and liposome preparations
Description: Colon 26 cells and AsPC-1 cells were inoculated on a 96-well plate at 5×10^3 cells per well and pre-incubated with 5% CO2 overnight.
The cells were incubated at 37° C. under 5% CO2 for 4 hours. The test solutions were removed, and the incubation was continued for an additional 2 days, at which time the number of living cells was counted. Cell viability was determined according to the WST-1 assay.
According to the WST-1 assay, the assay solution contained 5 mmol/L WST-1 reagent (10 μL); 20 mmol/L HEPES; 1-methoxy-PMS at 0.2 mmol/L, at pH 7.4. This solution was added to each well, mixed thoroughly, and incubated in a CO2 incubator for 2 hours to allow for color development. The absorbance was then measured on a plate reader at 400-450 nm, with a reference wavelength of >600 nm.

## O=C1[O][Pt]2([NH]C3CCCCC3[NH]2)[O]C1=O [L-OHP solution, Oxaliplatin]
  relative cytotoxicity in words: showed the highest toxicity
